Data from patent US20260138988A1, “Spiropyrrolidine Derived Antiviral Agents” (Enanta Pharmaceuticals, Inc., priority 2021, published 2026).

Biological target: SARS-CoV-2 3CL-protease (Severe acute respiratory syndrome coronavirus 2, UniProt P0DTD1)
Test: SARS-CoV-2 3C-Like (3CL) Protease Fluorescence Assay (FRET)
Format: biochemical
Conditions: IC50, SARS-CoV-2 3CL-protease 10 nM, test compounds 0-10 μM, duplicate

Structure (SMILES) | IC50
CC(C)C[C@@H](C(=O)N1C[C@]2(C[C@H]1C#N)C(=O)Nc1ccccc12)N(C)C(=O)[C@H](C)NC(=O)C(F)(F)C(F)(F)C(F)(F)C(F)(F)F [Example 144] | < 100 nM

Same assay, conditions: SARS-CoV-2 3CL-protease 10 nM, test compounds 0-10 μM, duplicate, read-out: IC50

Structure (SMILES) | IC50
C[C@H](NC(=O)OCc1ccccc1)C(=O)N(C)[C@@H](Cc1ccccc1)C(=O)N1C[C@]2(C[C@H]1C#N)C(=O)Nc1ccccc12 [Example 274] | < 100 nM
C[C@H](NC(=O)C(F)(F)Cc1ccc(F)cc1)C(=O)N(C)[C@@H](CC(C)(C)C)C(=O)N1C[C@]2(C[C@H]1C#N)C(=O)Nc1ccccc12 [Example 243] | < 100 nM
CC(C)C(=O)N[C@@H](C)C(=O)N[C@@H](CC(C)(C)C)C(=O)N1C[C@]2(C[C@H]1C#N)C(=O)Nc1ccccc12 [Example 223] | < 100 nM
C[C@H](NC(=O)C(F)(F)c1ccc(F)cc1)C(=O)N(C)[C@@H](CC(C)(C)C)C(=O)N1C[C@]2(C[C@H]1C#N)C(=O)Nc1ccccc12 [Example 308] | < 100 nM
C[C@H](NC(=O)C(F)(F)C(F)(F)F)C(=O)N(C)[C@@H](CC1CC1)C(=O)N1C[C@]2(C[C@H]1C#N)C(=O)Nc1ccc(Br)cc12 [Example 167] | < 100 nM
C[C@H](NC(=O)c1cccc(-c2ccccc2)c1)C(=O)N(C)[C@@H](CC(C)(C)C)C(=O)N1C[C@]2(C[C@H]1C#N)C(=O)Nc1ccccc12 [Example 290] | < 100 nM
CC(C)(C)C[C@H](NC(=O)[C@@H](NC(=O)C1CCC1)c1ccccc1)C(=O)N1C[C@]2(C[C@H]1C#N)C(=O)Nc1ccccc12 [Example 246] | < 100 nM
CC(C)(C)C[C@H](NC(=O)[C@@H](Nc1ccc(F)cc1)C1CC1)C(=O)N1C[C@]2(C[C@H]1C#N)C(=O)Nc1ccccc12 [Example 338] | < 100 nM
CCN1CC2(CCCC2)C[C@H]1C(=O)N(C)[C@@H](CC(C)C)C(=O)N1C[C@]2(C[C@H]1C#N)C(=O)Nc1ccccc12 [Example 257] | < 100 nM
CCN(C(=O)[C@H](C)NC(=O)c1ccc(C(C)(C)C)cc1)[C@@H](CC(C)C)C(=O)N1C[C@]2(C[C@H]1C#N)C(=O)Nc1ccccc12 [Example 363] | < 100 nM
CC(C)(C)C[C@H](NC(=O)[C@H](CC1CC1)NC(=O)c1cccc2cc(F)ccc12)C(=O)N1C[C@]2(C[C@H]1C#N)C(=O)Nc1ccccc12 [Example 315] | < 100 nM
CC(C)C[C@@H](C(=O)N1C[C@]2(C[C@H]1C#N)C(=O)Nc1ccccc12)N(C)C(=O)[C@H](C)NC(=O)c1c(F)c(F)c(F)c(F)c1F [Example 301] | < 100 nM
COCCC(=O)N[C@@H](C)C(=O)N(C)[C@@H](CC(C)(C)C)C(=O)N1C[C@]2(C[C@H]1C#N)C(=O)Nc1ccccc12 [Example 262] | < 100 nM
C[C@H](NC(=O)C12CC(C)(C1)C2)C(=O)N(C)[C@@H](CC(C)(C)C)C(=O)N1C[C@]2(C[C@H]1C#N)C(=O)Nc1ccccc12 [Example 309] | < 100 nM
C[C@@H]1NC(=O)CCCCCc2ccc3c(c2)[C@@]2(C[C@@H](C#N)N(C2)C(=O)[C@H](CC(C)(C)C)NC1=O)C(=O)N3 [Example 375] | > 1000 nM
CCN(C(=O)[C@H](C)NC(=O)OC(C)C)[C@@H](CC(C)C)C(=O)N1C[C@]2(C[C@H]1C#N)C(=O)Nc1ccccc12 [Example 371] | < 100 nM
CC[C@H](NC(=O)C(=O)Nc1c(F)cccc1C(F)(F)F)C(=O)N(C)[C@@H](CC(C)C)C(=O)N1C[C@]2(C[C@H]1C#N)C(=O)Nc1ccccc12 [Example 193] | < 100 nM
C[C@H](NC(=O)C(C)(C)C)C(=O)N[C@@H](CC(C)(C)C)C(=O)N1C[C@]2(C[C@H]1C#N)C(=O)Nc1ccccc12 [Example 219] | < 100 nM
C[C@H](NC(=O)C(F)(F)C(F)(F)F)C(=O)N(C)[C@@H](CC1CC1)C(=O)N1C[C@]2(C[C@H]1C#N)C(=O)N(COP(=O)(O)O)c1ccccc12 [Example 352] | < 100 nM
C[C@H](NC(=O)c1ccc(Cl)cc1)C(=O)N(C)[C@@H](CC(C)(C)C)C(=O)N1C[C@]2(C[C@H]1C#N)C(=O)Nc1ccccc12 [Example 211] | < 100 nM
CC(C)(C)C[C@H](NC(=O)[C@H](CC1CC1)NC(=O)C1CC2CCC1C2)C(=O)N1C[C@]2(C[C@H]1C#N)C(=O)Nc1ccccc12 (stereo partly shown) [Example 318] | < 100 nM
